Measured values published in patent EP1087941B9, “THIOLESTERS AND USES THEREOF” (THE UNITED STATES OF AMERICA, as represented by THE …, priority 1998, dated 1999).
Like-named read-outs stand apart in the source and are kept apart here.

Columns and labels:
[1] = test system: HIV-1RF; experiment: XTT cytoprotection assay (antiviral activity); assay type: cell-based; conditions: for antiviral activity: result in words
Excerpt: (§1) One exemplary means to determine antiviral activity is with CEM-SS cells and virus (e.g., HIV-1RF) (MOI = 0.01) using the XTT (2,3-bis[2-methoxy- 4-nitro-5-sulfophenyl] -5- [(phenylamino)carbonyl]-2H-tetrazolium hydroxide) cytoprotection assay, as described by Rice (1993) PNAS 90:9721-9724, and Rice (1997) Antimicrob. Agents Chemother. 41:419-426. Briefly, cells are infected with HIV-1RF (or other virus to be tested) in the presence of various dilutions of test compounds (thiolesters and controls). The cultures are incubated for seven days. During this time control cultures without protective compounds (i.e., compounds with anti-viral activity) replicate virus, induce syncytia, and result in about 90% cell death. The cell death is measured by XTT dye reduction. XTT is a soluble tetrazolimn dye that measures mitochondrial energy output, similar to MTT. Positive controls using dextran sulfate (an attachment inhibitor) or 3'-Azido -2'-3'-dideoxythymidine, AZT (a reverse transcriptase inhibitor) are added to each assay. Individual assays are done in duplicate using a sister plate method.
(§2) Effective antiviral concentrations providing 50% cytoprotection (EC50), and cellular growth inhibitory concentrations causing 50% cytotoxicity (IC50) are calculated.

[2] = test system: CEM-SS cells; experiment: cells; assay type: cell-based; conditions: for IC50: Homo sapiens, CEM-SS
Excerpt: as §1, §2

[3] = target: T1, recombinant HIV-1 NCp7 protein (Human immunodeficiency virus type 1 group M subtype B, UniProt P03347); experiment: Trp37 zinc finger fluorescence (zinc ejection) assay; assay type: biochemical; conditions: for Zinc Finger Reactivity RFU/30 min: Table 2
T1 construct: within the nucleocapsid p7 (NCp7) protein portion of the polyprotein
Procedure: Zinc finger reactivity was measured using a Zn specific fluorochrome, TSQ, N-(6-methoxy-8-quinolyl) -p-toluenesulfonamide, assay or a Trp37 zinc finger fluorescence assay. Fluorescent measurements of the Trp37 residue in the C-terminal finger of recombinant HIV-1 NCp7 protein were performed as described by Rice (1995) Science 270:1194-1197; Rice (1997) Antimicrob. Agents Chemother. 41:419-426. Measurement of Zn ejection from both fingers was measured using the Zn-selective fluorchrome probe TSQ (Molecular Probes, Eugene OR) as described by Rice (1996) J. Med. Chem 39:3606-3616. Measurement of the ability of NCp7 to bind to a DNA oligomer, a 44 mer: […] (SEQ ID NO:1), analogous to the HIV-1 RNA packaging site was carried out as described by Huang (1998) J. Med. Chem. 41:1371-1381, see also, Rossio (1998) HIV Pathogenesis and Treatment: Keystone Symposium on Molecular and Cellular Biology, Abstract # 4082. Briefly, 50 nM NCp7 was treated with test compounds for 1 hour at RT in […] buffer containing 10% glycerol and 50 mM Tris-HCl (pH 7.5). Labeled oligomer (0.1 picomole, end labeled [^32P]) was added in an equal volume of buffer containing 10% glycerol, 50 mM Tris-HCl (pH 7.5), 400 mM KCl and 40 mM MgCl2. The reaction was continued for 15 min at room temperature, and a total of […] (or 1/4 of the total reaction volume) was separated on nondenaturing 4.5% polyacrylamide gels in 0.5X Tris-Borate electrophoresis buffer. NCp7-oligomer complexes were visualized by autoradiography.
Changes in the intrinsic fluorescence of aromatic protein moieties are commonly used to monitor a reaction which involves a change in protein conformation. In the present invention, fluorescence can be used to monitor the loss of metal ion from a zinc finger, e.g., the loss of zinc from a CCHC retroviral zinc finger protein, after contact with a thiolester of the invention. The intrinsic fluorescence of Trp 37 in the second zinc finger of HIV-1 NC protein has been used to monitor nucleic acid binding and conformation of the zinc finger complex (see, Summers (1992) supra).
Zinc ejection is measured by the ability of compounds to chemically attack the cysteines in purified NCp7 protein resulting in a loss of fluorescence due to the movement of the tryptophan 37 residue from an exposed to an internal position on the protein. Zinc ejection is measured and expressed as either percent decrease in total fluorescence or decrease in relative fluorescence units per min during a 30 min assay (RFU/min). A thiolester is considered within the scope of the invention if any amount of zinc ejection is detected. For example, compound 50 has a zinc ejection rate of 0.86 RFU/min.

[4] = Human immunodeficiency virus 1, read-out: Antiviral Activity EC50
[5] = read-out: Antiviral Activity IC50
[6] = read-out: IC50 / cellular toxicity
[7] = average decrease in relative fluorescence
[8] = Table 3, average decrease in relative fluorescence
[9] = Human immunodeficiency virus 1, read-out: Antiviral Activity EC50%
[10] = read-out: Antiviral Activity IC50%
[11] = Table 10, average decrease in relative fluorescence units over 30 min
[12] = Human immunodeficiency virus 1, B104
[13] = Table 4, average decrease in relative fluorescence units over 30 min
[14] = Human immunodeficiency virus 1, read-out: EC50 (concentration inhibiting 50% virus replication)
[15] = Table 5, average decrease in relative fluorescence units over 30 min
[16] = Table 6, average decrease in relative fluorescence units over 30 min

NS(=O)(=O)c1ccc(CNC(=O)c2ccccc2SSc2ccccc2C(=O)NCc2ccc(S(N)(=O)=O)cc2)cc1 [Compound 23D, N,N'-(2,2'-dithiodibenzoyl)-bis-4-(aminomethyl)benzene-sulfonamide]
EC50 [1, 4]: 0.33 µM
IC50 [2, 5]: 19.4 µM
IC50 [2, 6]: 19.4 µM
zinc finger reactivity / zinc ejection rate [3]: 3.3 RFU/min
Zinc Finger Reactivity RFU/30 min [3, 7]: 3.3 RFU/30 min

O=C(Nc1ccc(S(=O)(=O)c2ccc(NC(=O)c3ccccc3SSc3ccccc3C(=O)Nc3ccc(S(=O)(=O)c4ccc(NC(=O)c5ccc([N+](=O)[O-])cc5)cc4)cc3)cc2)cc1)c1ccc([N+](=O)[O-])cc1 [Compound 32D]
EC50 [1, 4]: 78 µM
IC50 [2, 5]: > 316 µM
Zinc Finger Reactivity RFU/ min [3, 8]: 2.9 RFU/ min

CC(=O)NS(=O)(=O)c1ccc(NC(=O)c2ccccc2NC(=O)CCCC[n+]2ccccc2)cc1 [Compound 56]
EC50 [1, 9]: > 316 µM
antiviral activity [1]: inactive
IC50 [2, 10]: > 316 µM
Zinc Finger Reactivity RFU/ min [3, 11]: 2.6 RFU/ min

Nc1cccc(S(=O)(=O)c2cccc(NC(=O)c3ccccc3SSc3ccccc3C(=O)Nc3cccc(S(=O)(=O)c4cccc(N)c4)c3)c2)c1 [Compound 35]
EC50 [1, 12]: 1 µM
EC50 [1, 4]: 1 µM
IC50 [2, 5]: 81.5 µM
zinc finger reactivity / zinc ejection rate [3]: 0.92 RFU/min
Zinc Finger Reactivity RFU/ min [3, 13]: 0.92 RFU/min

CC(=O)Nc1ccc(S(=O)(=O)c2ccc(NC(=O)c3ccccc3SSc3ccccc3C(=O)Nc3ccc(S(=O)(=O)c4ccc(NC(C)=O)cc4)cc3)cc2)cc1 [Compound 27D]
EC50 [1, 12]: 1.5 µM
EC50 [1, 4]: 1.5 µM
EC50 [1, 14]: 1.5 µM
IC50 [2, 5]: 160 µM
IC50 [2, 6]: 160 µM
zinc finger reactivity / zinc ejection rate [3]: 5.9 RFU/min
Zinc Finger Reactivity RFU/ min [3, 8]: 5.9 RFU/ min

O=C(Nc1ccc(S(=O)(=O)c2ccc(NC(=O)c3ccccc3SSc3ccccc3C(=O)Nc3ccc(S(=O)(=O)c4ccc(NC(=O)c5cc([N+](=O)[O-])cc([N+](=O)[O-])c5)cc4)cc3)cc2)cc1)c1cc([N+](=O)[O-])cc([N+](=O)[O-])c1 [Compound 33D]
EC50 [1, 4]: 240 µM
IC50 [2, 5]: > 316 µM
Zinc Finger Reactivity RFU/ min [3, 8]: 1.6 RFU/ min

CC(=O)NS(=O)(=O)c1ccc(NC(=O)c2ccccc2NC(=O)CCCl)cc1 [Compound 37, N-[2-(3-chloro-propionamido)benzoyl]sulfacetamide]
antiviral activity [1]: neither had appreciable antiviral activity
IC50 [2, 10]: > 316 µM
Zinc Finger Reactivity RFU/ min [3, 15]: RFU/ min^b 2.0
zinc finger reactivity ([3]; result in words): modest zinc finger reactivity

CC(=O)Nc1cccc(S(=O)(=O)c2cccc(NC(=O)c3ccccc3SSc3ccccc3C(=O)Nc3cccc(S(=O)(=O)c4cccc(NC(C)=O)c4)c3)c2)c1 [Compound 36]
EC50 [1, 12]: 0.62 µM
EC50 [1, 4]: 0.62 µM
IC50 [2, 5]: 5.9 µM
zinc finger reactivity / zinc ejection rate [3]: 2 RFU/min
Zinc Finger Reactivity RFU/ min [3, 13]: 2 RFU/min

CC(=O)Nc1ccc(S(=O)(=O)c2ccc(NC(=O)c3ccccc3SC(=O)CCCC[n+]3ccccc3)cc2)cc1 [Compound 51]
EC50 [1, 9]: 4.6 µM
IC50 [2, 5]: 288 µM
Zinc Finger Reactivity RFU/ min [3, 16]: 1.7 RFU/ min

O=C(CCCCBr)Sc1ccccc1C(=O)Nc1ccc(S(=O)(=O)c2ccc([N+](=O)[O-])cc2)cc1 [Compound 46]
EC50 [1, 9]: 1.6 µM
IC50 [2, 5]: 21.7 µM
Zinc Finger Reactivity RFU/ min [3, 16]: 1 RFU/ min

O=C(CCCCBr)Sc1ccccc1C(=O)Nc1ccc(S(=O)(=O)c2ccc(NS(=O)(=O)Cc3ccccc3[N+](=O)[O-])cc2)cc1 [Compound 49]
EC50 [1, 9]: > 316 µM
IC50 [2, 5]: > 316 µM
Zinc Finger Reactivity RFU/ min [3, 16]: 1.9 RFU/ min

NS(=O)(=O)c1ccc(CCNC(=O)c2ccccc2SSc2ccccc2C(=O)NCCc2ccc(S(N)(=O)=O)cc2)cc1 [Compound 24D, N,N-(2,2'-dithiodibenzoyl)-bis-4-(2-aminoethyl)benzene-sulfonamide]
EC50 [1, 4]: 0.41 µM
IC50 [2, 5]: 52.8 µM
Zinc Finger Reactivity RFU/30 min [3, 7]: 2.7 RFU/30 min

CC(=O)NS(=O)(=O)c1ccc(NC(=O)c2ccccc2SC(=O)c2ccccc2)cc1 [Compound 41]
EC50 [1, 4]: 2.6 µM
IC50 [2, 10]: 45.7 µM
IC50 [2, 6]: ~50 µM
Zinc Finger Reactivity RFU/ min [3, 15]: 2.2 RFU/ min

NS(=O)(=O)c1ccc(CCn2sc3ccccc3c2=O)cc1 [24 BITA]
EC50 [1, 4]: 2 µM
IC50 [2, 5]: 45.5 µM
Zinc Finger Reactivity RFU/30 min [3, 7]: 2.7 RFU/30 min

COc1ccc(C(=O)Nc2ccc(S(=O)(=O)c3ccc(NC(=O)c4ccccc4SSc4ccccc4C(=O)Nc4ccc(S(=O)(=O)c5ccc(NC(=O)c6ccc(OC)cc6)cc5)cc4)cc3)cc2)cc1 [Compound 29D]
EC50 [1, 4]: 3.8 µM
IC50 [2, 5]: 79.6 µM
Zinc Finger Reactivity RFU/ min [3, 8]: 6.9 RFU/ min

Nc1ccc(S(=O)(=O)c2ccc(NC(=O)c3ccccc3SSc3ccccc3C(=O)Nc3ccc(S(=O)(=O)c4ccc(N)cc4)cc3)cc2)cc1 [Compound 26D]
EC50 [1, 12]: 4.3 µM
EC50 [1, 4]: 4.3 µM
EC50 [1, 14]: 4.3 µM
IC50 [2, 5]: < 316 µM
toxicity at the high test dose ([2]; high test dose of 316 µM): no toxicity
zinc finger reactivity / zinc ejection rate [3]: 3.3 RFU/min
Zinc Finger Reactivity RFU/ min [3, 8]: 3.3 RFU/ min

COc1ccc(C(=O)Sc2ccccc2C(=O)Nc2ccc(S(=O)(=O)NC(C)=O)cc2)cc1 [Compound 42]
EC50 [1, 4]: 2.8 µM
IC50 [2, 10]: 43.7 µM
IC50 [2, 6]: ~50 µM
Zinc Finger Reactivity RFU/ min [3, 15]: 3.5 RFU/ min

CC(=O)Nc1cccc(S(=O)(=O)c2cccc(NC(=O)c3ccccc3SC(=O)CCCC[n+]3ccccc3)c2)c1 [Compound 52]
EC50 [1, 9]: 4.9 µM
IC50 [2, 5]: 205 µM
Zinc Finger Reactivity RFU/ min [3, 16]: 1.1 RFU/ min

CC(=O)NS(=O)(=O)c1ccc(NC(=O)c2ccccc2SC(=O)CCCCC[n+]2ccccc2)cc1 [Compound 55]
EC50 [1, 9]: 10.5 µM
IC50 [2, 10]: 69.7 µM
Zinc Finger Reactivity RFU/ min [3, 11]: 1.9 RFU/ min

O=C(CCCC[n+]1ccccc1)Sc1ccccc1C(=O)Nc1ccc(S(=O)(=O)c2ccc(NS(=O)(=O)Cc3ccccc3[N+](=O)[O-])cc2)cc1 [Compound 50]
EC50 [1, 9]: 2.9 µM
IC50 [2, 5]: > 316 µM
zinc finger reactivity / zinc ejection rate [3]: 0.86 RFU/min
Zinc Finger Reactivity RFU/ min [3, 16]: 0.86 RFU/ min

O=c1c2ccccc2sn1-c1ccc(S(=O)(=O)c2ccc(NS(=O)(=O)Cc3ccccc3[N+](=O)[O-])cc2)cc1 [34 BITA]
EC50 [1, 4]: 3.2 µM
antiviral activity [1]: significant antiviral activity
IC50 [2, 5]: 59.5 µM
Zinc Finger Reactivity RFU/ min [3, 8]: 2 RFU/ min
